Test system: synthesis of triglycerides (enzyme from pig adipose tissue)
Test: Inhibition of triglyceride synthesis by enzyme preparation (homogenate supernatant) from pig adipose tissue, 14C-glycerol-3-phosphate incorporation
Assay type: biochemical
Details: test compound 1000 micrograms per milliliter, 5% DMSO, incubated eight minutes at 37° C; compared to controls; average of two animals, three replicates each
Description: The manner in which they cause this effect has not been established. Their effectiveness for this purpose has been ascertained by the following procedure.
An enzyme was prepared by homogenizing one gram of slices from pig adipose tissue, each slice being approximately 0.3 mm thick, in one-milliliter portions of a liquid medium (Liquid A). The homogenate then was centrifuged (10,000 g×15 minutes), and the supernatant phase (the enzyme) was poured through cheesecloth to remove fat that has risen to the top of the centrifuge tubes.
Liquid A had the following composition (in water):
0.15 M potassium chloride, 1 mM ethylenediaminetetracetic acid, 10 mM Hepes (N-2-hydroxyethylpiperazine-N'-2-ethanesulfonic acid), 1 mM DTT (dithiothreitol), pH=7.0.
A solution of the test compound (Liquid B) was prepared: 10 milligrams of test compound plus 0.5 milliliter dimethylsulfoxide (DMSO) plus 1.83 milliliters of glass-distilled water.
A premix (Liquid C) was freshly prepared before each test, from the following components. […]
0.25 milliliter of enzyme then was added. […] Ten milliliters of a 2:1 (v/v) mixture of toluene and Triton X-100 containing 0.27% New England Nuclear Omnifluor was added, and the radioactivity was determined in a liquid scintillation counter. […]
The percent inhibition by the test compound compared to the controls […] was determined.

Percent Inhibition	SMILES
95	Cl.Cn1c(=O)c2c(ncn2CCNCC(O)c2cc(C(C)(C)C)c(O)c(C(C)(C)C)c2)n(C)c1=O (centres unmarked) [7-(2-(2-(3,5-bis-(1,1-dimethylethyl)-4-hydroxyphenyl)-2-hydroxyethylamino)ethyl)-3,7-dihydro-1,3-dimethyl-1H-purine-2,6-dione, hydrochloride]
93	Cl.Cn1c(=O)c2c(ncn2CCCNCC(O)c2cc(C(C)(C)C)c(O)c(C(C)(C)C)c2)n(C)c1=O (centres unmarked) [7-(3-(2-(3,5-bis-(1,1-dimethylethyl)-4-hydroxyphenyl)-2-hydroxyethylamino)propyl)-3,7-dihydro-1,3-dimethyl-1H-purine-2,6-dione, hydrochloride]
